# Measurements reported in patent publication US8198446B2, “Crystalline micropowder particles” (Toray Industries, Inc., priority 2007, dated 2012).
# “And” between values parts separate entries of the source, which are not always exact repeats. Equal values may be shown once.
# How the values were obtained:
# Format in all cases: physicochemical
# [1] = Measurement of particle diameter distribution (laser diffraction, dry measurement, Mastersizer 2000); details: for Particle Diameter Distribution D50 / Particle Diameter Distribution D90: dry measurement, volume basis
# Description: In the present invention, D50 and D90 are indices for defining particle diameter distribution. Particle diameter distribution is usually called particle size distribution. Particles are divided into groups along with their size with appropriate intervals, and weight (volume) or particle number of the particles belonging to each group is measured to obtain the particle number (frequency) of each group. Taking the particle number (frequency) along the ordinate and taking the particle diameter along the abscissa, a particle diameter distribution is shown as a histogram, frequency curve, cumulative curve or the like. In the present invention, frequency was calculated based on volume. In the particle diameter distribution obtained in such a manner, D50 means the particle diameter at the point where the volume which is cumulatively measured from smaller particles reaches 50%, that is, the point where the cumulative frequency of the volume distribution reaches 50%. D90 means the particle diameter at the point where the volume which is cumulatively measured from smaller particles reaches 90%, that is, the point where the cumulative frequency of the volume distribution reaches 90%. Cumulative frequency (%) of particles which have a smaller diameter than a specified particle diameter can also be calculated from such a distribution chart.
# Measurement of the particle diameter distribution of the crystalline finely-ground particles according to the present invention may be carried out with a commercially available apparatus using laser diffraction/scattering based on Mie Theory. For example, the measurement is carried out using a commercially available apparatus such as Malvern (registered trademark) Mastersizer Laser Diffraction Analyzer (Malvern Instruments Ltd). This analyzer irradiates He—Ne laser beam and blue light-emitting diode on particles to obtain a light scattering pattern which occurs on a detector by the irradiation, and then analyzes the light scattering pattern according to Mie Theory to determine the particle diameter distribution. […] An example of the measurement condition is as follows, which was used in Evaluation 1 of the present invention.
# • Apparatus: Laser diffraction-based particle size distribution analyzer Mastersizer 2000 (Malvern) • Dry measurement unit: Scircco 2000 • Refractive Index of Samples: Real part; 1.810, Imaginary part; 0 • Time for Sample Measurement: 1 second • Time for Background Measurement: 5 seconds • Pressure: 2.0 bar • Feed Rate: 40% • Analysis Model: Single narrow mode • Calculation Sensitivity Enhanced • Particle Shape Irregular • Analysis Range: 0.020 to 2000 μm • Basis of Size Distribution Measurement: Volume
# The particle diameter distribution of the subject compound was measured by dry measurement using a particle size distribution analyzer (Mastersizer 2000, manufactured by Malvern). D50 and D90 were calculated as an index of the particle diameter distribution.
# [2] = Check of crystalline state and measurement of degree of crystallinity by powder X-ray diffraction; details: for Degree of Crystallinity: powder X-ray diffraction, Xc=(Sc/(Sc+Sa))×100
# Description: The degree of crystallinity of the crystalline finely-ground particles according to the present invention is calculated from the integrated intensity ratio of crystalline peaks and amorphous halo which are extracted from an X-ray diffraction pattern obtained by powder X-ray diffraction measurement.
# The powder X-ray diffraction measurement may be carried out by using, for example, a powder X-ray diffractometer (2200/RINT Ultima+PC) manufactured by Rigaku as described in Evaluation 2 of the present invention. In preparation of a measurement sample, 100 mg of a sample material is filled in a glass sample plate (0.2 mm depth) in non-destructive condition, and the surface of the sample material is leveled out using a glass plate to obtain a measurement sample. An example of the measurement condition is as follows, which was used in the present invention.
# The degree of crystallinity may be calculated by a known analysis method using diffraction patterns of a sample material and sample plate alone (without a sample material) and a difference pattern thereof. For example, using a powder X-ray diffraction pattern analysis software JADE5.0 produced by MDI, which is a commercially available analysis software, a degree of crystallinity may be calculated as follows.
# • (1) A difference pattern of the diffraction patterns of a sample material and sample plate alone is smoothed (Savitzky-Goray filter: 19 points). • (2) For a display area of the difference pattern, the x-axis: diffraction angle (2θ) is set between 2 deg and 90 deg, and the y-axis: diffraction intensity (Counts) is set between 0 and 500. • (3) Points are set at diffraction angles of […], 65 and 90 deg, respectively, and a straight line parallel to the x-axis is drawn such that the line is contact with the difference diffraction pattern at a range of 65 deg to 90 deg. The area below the line is determined as a background. • (4) The background is subtracted. • (5) An integrated intensity at a range of 4 deg to 60 deg is calculated (which corresponds to a sum of the integrated intensity of crystalline peaks and an amorphous halo: Sc+Sa) • (6) Points are set at diffraction angles of 2, 7, 18, 26, 30, 35, 59, 65 and 90 deg, respectively. At 2, 65 and 90 deg, the diffraction intensity is set as 0, and at 7, 18, 26, 30, 35 and 59 deg, an approximation by a cubic spline is made such that the approximation formula is in contact with the difference pattern obtained after the subtraction of the background, thereby estimating an amorphous halo. • (7) The amorphous halo is subtracted. • (8) The integrated intensity at a range of 4 deg to 60 deg is calculated (which corresponds to the integrated intensity of the crystalline peaks: Sc). • (9) A degree of crystallinity is calculated according to the following equation. Xc=(Sc/(Sc+Sa))×100 Equation • Xc: Degree of crystallinity (%) • Sc: Integrated intensity of the crystalline peaks • Sa: Integrated intensity of the amorphous halo
# For check of the crystalline state and measurement of the degree of crystallinity, powder X-ray diffraction measurement was carried out using a powder X-ray diffraction analyzer (2200/RINT Ultima+PC) manufactured by Rigaku.
# [3] = Storage stability (2): total amount of related substances by HPLC, 60° C./75% RH opened
# Description: For comparison of storage stability, the ground pharmaceutical active substance of Comparative Example 4 (grinding for 3 min), Comparative Example 5 (grinding for 6 min) and Comparative Example 6 (grinding for 7 min), all of which were ground with Table Ball Mill (model V-2M: manufactured by Irie Shokai), were left under the storage condition of 60° C./75% RH opened, and the total amount of related substances was analyzed by HPLC 0.5 and 2 months after the start of the storage (Table 7).
# [4] = Storage stability (1): content of pharmaceutical active substance by HPLC, 60° C./75% RH opened
# Description: For comparison of storage stability, the ground pharmaceutical active substance of Example 6 (crystallinity 88%) which was ground with a jet mill pulverizer Co-jet (α-mkII: manufactured by Seishin Enterprise) and that of Comparative Example 7 (crystallinity 73%) which was ground with a mortar and pestle were left under the storage condition of 60° C./75% RH opened, and the content of the pharmaceutical active substance was analyzed by HPLC 0.5 and 2 months after the start of the storage (Table 6).
# [5] = 60° C./75% RH opened, 0.5-Month Later
# [6] = 60° C./75% RH opened, 2-Month Later
Compound,Particle Diameter Distribution D50 [1] [μm],Particle Diameter Distribution D90 [1],Degree of Crystallinity [2] [%],further results
"O=C1c2ccccc2C(=O)N1[C@@H]1CC[C@@]2(O)[C@H]3Cc4ccc(O)c5c4[C@@]2(CCN3CC2CC2)[C@H]1O5 [Comparative Example 6, N-(17-cyclopropylmethyl-4,5α-epoxy-3,14-dihydroxy-morphinan-6β-yl)-phthalimide]",23.0,436 μm,61,"Total Amount of Related Substances [3, 5]: 0.67%; Total Amount of Related Substances [3, 6]: 1.27%; Total Amount of Related Substances ([3]; At Start of Storage): 0.24%"
"O=C1c2ccccc2C(=O)N1[C@@H]1CC[C@@]2(O)[C@H]3Cc4ccc(O)c5c4[C@@]2(CCN3CC2CC2)[C@H]1O5 [Example 7, N-(17-cyclopropylmethyl-4,5α-epoxy-3,14-dihydroxy-morphinan-6β-yl)-phthalimide]",5.67,16.1 μm,87,
"O=C1c2ccccc2C(=O)N1[C@@H]1CC[C@@]2(O)[C@H]3Cc4ccc(O)c5c4[C@@]2(CCN3CC2CC2)[C@H]1O5 [Comparative Example 1, N-(17-cyclopropylmethyl-4,5α-epoxy-3,14-dihydroxy-morphinan-6β-yl)-phthalimide]",32.4,110 μm,97,Cumulative Frequency of Volume Distribution Which Is Occupied by Particles with Volume-Based Particle Diameter 15 (μm) or Less [1]: 23.3%
"O=C1c2ccccc2C(=O)N1[C@@H]1CC[C@@]2(O)[C@H]3Cc4ccc(O)c5c4[C@@]2(CCN3CC2CC2)[C@H]1O5 [Example 1, N-(17-cyclopropylmethyl-4,5α-epoxy-3,14-dihydroxy-morphinan-6β-yl)-phthalimide]",4.25,9.14 μm,89,
"O=C1c2ccccc2C(=O)N1[C@@H]1CC[C@@]2(O)[C@H]3Cc4ccc(O)c5c4[C@@]2(CCN3CC2CC2)[C@H]1O5 [Example 3, N-(17-cyclopropylmethyl-4,5α-epoxy-3,14-dihydroxy-morphinan-6β-yl)-phthalimide]",9.89,29.4 μm and 28.4 μm,94,Cumulative Frequency of Volume Distribution Which Is Occupied by Particles with Volume-Based Particle Diameter 15 (μm) or Less [1]: 70.8%
"O=C1c2ccccc2C(=O)N1[C@@H]1CC[C@@]2(O)[C@H]3Cc4ccc(O)c5c4[C@@]2(CCN3CC2CC2)[C@H]1O5 [Comparative Example 3, N-(17-cyclopropylmethyl-4,5α-epoxy-3,14-dihydroxy-morphinan-6β-yl)-phthalimide]",,,,crystalline state by powder X-ray diffraction ([2]; Eight hours after grinding with ball mill): converted into an amorphous material
"O=C1c2ccccc2C(=O)N1[C@@H]1CC[C@@]2(O)[C@H]3Cc4ccc(O)c5c4[C@@]2(CCN3CC2CC2)[C@H]1O5 [Example 9, N-(17-cyclopropylmethyl-4,5α-epoxy-3,14-dihydroxy-morphinan-6β-yl)-phthalimide]",11.5,30.9 μm,89,
"O=C1c2ccccc2C(=O)N1[C@@H]1CC[C@@]2(O)[C@H]3Cc4ccc(O)c5c4[C@@]2(CCN3CC2CC2)[C@H]1O5 [Example 6, N-(17-cyclopropylmethyl-4,5α-epoxy-3,14-dihydroxy-morphinan-6β-yl)-phthalimide]",5.13,11.2 μm,,"Content of Pharmaceutical Active Substance by HPLC [4, 5]: 99.15%; Degree of Decrease Based on Start of Storage [4, 5]: 1.39; Content of Pharmaceutical Active Substance by HPLC [4, 6]: 99.09%; Degree of Decrease Based on Start of Storage [4, 6]: 1.49; Content of Pharmaceutical Active Substance by HPLC ([4]; At Start of Storage): 99.39%"
"O=C1c2ccccc2C(=O)N1[C@@H]1CC[C@@]2(O)[C@H]3Cc4ccc(O)c5c4[C@@]2(CCN3CC2CC2)[C@H]1O5 [Comparative Example 4, N-(17-cyclopropylmethyl-4,5α-epoxy-3,14-dihydroxy-morphinan-6β-yl)-phthalimide]",17.1,168 μm,82,"Total Amount of Related Substances [3, 5]: 0.38%; Total Amount of Related Substances ([3]; At Start of Storage): 0.23%"
"O=C1c2ccccc2C(=O)N1[C@@H]1CC[C@@]2(O)[C@H]3Cc4ccc(O)c5c4[C@@]2(CCN3CC2CC2)[C@H]1O5 [Example 8, N-(17-cyclopropylmethyl-4,5α-epoxy-3,14-dihydroxy-morphinan-6β-yl)-phthalimide]",11.8,35.3 μm,92,
"O=C1c2ccccc2C(=O)N1[C@@H]1CC[C@@]2(O)[C@H]3Cc4ccc(O)c5c4[C@@]2(CCN3CC2CC2)[C@H]1O5 [Comparative Example 7, N-(17-cyclopropylmethyl-4,5α-epoxy-3,14-dihydroxy-morphinan-6β-yl)-phthalimide]",,,,"Content of Pharmaceutical Active Substance by HPLC [4, 5]: 98.85%; Degree of Decrease Based on Start of Storage [4, 5]: 1.64; Content of Pharmaceutical Active Substance by HPLC [4, 6]: 98.51%; Degree of Decrease Based on Start of Storage [4, 6]: 2.13; Content of Pharmaceutical Active Substance by HPLC ([4]; At Start of Storage): 99.30%"
"O=C1c2ccccc2C(=O)N1[C@@H]1CC[C@@]2(O)[C@H]3Cc4ccc(O)c5c4[C@@]2(CCN3CC2CC2)[C@H]1O5 [Example 4, N-(17-cyclopropylmethyl-4,5α-epoxy-3,14-dihydroxy-morphinan-6β-yl)-phthalimide]",14.6,47.8 μm,96,Cumulative Frequency of Volume Distribution Which Is Occupied by Particles with Volume-Based Particle Diameter 15 (μm) or Less [1]: 51.7%
"O=C1c2ccccc2C(=O)N1[C@@H]1CC[C@@]2(O)[C@H]3Cc4ccc(O)c5c4[C@@]2(CCN3CC2CC2)[C@H]1O5 [Example 5, N-(17-cyclopropylmethyl-4,5α-epoxy-3,14-dihydroxy-morphinan-6β-yl)-phthalimide]",7.83,16.0 μm,90,
